{
  "source": "patent US9789095B2",
  "about": "“Inhibitors of calcium-activated chloride channels” (The Regents of the University of California, priority 2007, dated 2017)",
  "data": [
    {"tested_on": "calcium-activated chloride channel (CaCC)", "test": "YFP fluorescence plate reader iodide influx assay in HT-29 cells (ATP/carbachol)", "type": "cell-based, human", "settings": "class A aminothiophenes, semi-quantitative", "procedure": "(§1) Screening was performed using a customized screening system (BECKMAN COULTER, Inc., Indianapolis, Ind.) consisting of the SAGIAN Core system integrated with SAMI software, and equipped with an ORCA arm for labware transport, a 96-channel head BIOMEK FX, CO2 incubator, plate washer, bar code reader, delidding station, and two FLUOstar OPTIMA fluorescence plate readers (BMG Labtechnologies, Durham, N.C.), each equipped with syringe pumps and custom excitation/emission filters (500/544 nm; CHROMA, Brattleboro, Vt.).\n(§2) HT-29 cells expressing YFP-H148Q/I152L were plated in 96-well plates at 70% confluence. Plates were incubated overnight at 37° C., 5% CO2 and then the growth medium was replaced with fresh growth medium. […] YFP fluorescence was measured 1 s before and for 30 s after addition of a PBS-iodide solution (PBS that has 100 mM chloride replaced by iodide) containing carbachol and ATP (100 μM each). Each 96-well plate contained ‘positive’ controls (DMSO vehicle without agonists or test compounds) and ‘negative’ controls (DMSO vehicle with agonists but without test compounds). In some experiments solutions included (individually or in combination): carbachol, ATP, or histamine (at 50, 100, 150 or 200 μM), calcimycin (10 μM), thapsigargin (2 μM) and CFTRinh-172 (20 μM).\n(§3) Iodide influx (d[I^−]/dt at t=0) was computed from fluorescence time course data by single exponential regression, as described (Ma et al., J. Clin. Invest. 110:1651-8 (2002)). Percentage inhibition was computed as: percentage inhibition=100×(Slopenegative control−Slopetest compound)/(Slopenegative control−Slopepositive control).", "units": {"% inhibition at 25 μM": "%"}, "values": [
      {"smiles": "Cc1ccccc1C(=O)Nc1sc2c(c1C(=O)O)CCC(C(C)(C)C)C2", "note": "(centres unmarked) [CaCCinh-A02, 6-tert-butyl-2-(2-methylbenzamido)-4,5,6,7-tetrahydrobenzo[b]thiophene-3-carboxylic acid]", "% inhibition at 25 μM": 95},
      {"smiles": "CC(C)(C)C1CCc2c(sc(NC(=O)c3cccc(Cl)c3)c2C(=O)O)C1", "note": "(centres unmarked) [CaCCinh-A03, 6-tert-butyl-2-(3-chlorobenzamido)-4,5,6,7-tetrahydrobenzo[b]thiophene-3-carboxylic acid]", "% inhibition at 25 μM": 50},
      {"smiles": "CC(C)(C)C1CCc2c(sc(NC(=O)c3ccccc3)c2C(=O)O)C1", "note": "(centres unmarked) [CaCCinh-A04, 2-benzamido-6-tert-butyl-4,5,6,7-tetrahydrobenzo[b]thiophene-3-carboxylic acid]", "% inhibition at 25 μM": 85},
      {"smiles": "CC(C)(C)C1CCc2c(sc(NC(=O)c3ccccc3Cl)c2C(=O)O)C1", "note": "(centres unmarked) [CaCCinh-A05, 6-tert-butyl-2-(2-chlorobenzamido)-4,5,6,7-tetrahydrobenzo[b]thiophene-3-carboxylic acid]", "% inhibition at 25 μM": 75},
      {"smiles": "CCOC(=O)c1c(NC(=O)CCC(=O)O)sc2c1CCC(C(C)(C)C)C2", "note": "(centres unmarked) [CaCCinh-A06, 4-(6-tert-butyl-3-(ethoxycarbonyl)-4,5,6,7-tetrahydrobenzo[b]thiophen-2-ylamino)-4-oxobutanoic acid]", "% inhibition at 25 μM": 75},
      {"smiles": "CCOC(=O)c1c(NC(=O)/C=C/C(=O)O)sc2c1CCC(C(C)(C)C)C2", "note": "(centres unmarked) [CaCCinh-A07, (E)-4-(6-tert-butyl-3-(ethoxycarbonyl)-4,5,6,7-tetrahydrobenzo[b]thiophen-2-ylamino)-4-oxobut-2-enoic acid]", "% inhibition at 25 μM": 98},
      {"smiles": "CCOC(=O)c1c(NC(=O)C2CCCCC2C(=O)O)sc2c1CCC(C(C)(C)C)C2", "note": "(centres unmarked) [CaCCinh-A08, 2-(6-tert-butyl-3-(ethoxycarbonyl)-4,5,6,7-tetrahydrobenzo[b]thiophen-2-ylcarbamoyl)cyclohexanecarboxylic acid]", "% inhibition at 25 μM": 80},
      {"smiles": "COC(=O)c1c(NC(=O)CCCC(=O)O)sc2c1CCC(C(C)(C)C)C2", "note": "(centres unmarked) [CaCCinh-A09, 5-(6-tert-butyl-3-(methoxycarbonyl)-4,5,6,7-tetrahydrobenzo[b]thiophen-2-ylamino)-5-oxopentanoic acid]", "% inhibition at 25 μM": 45},
      {"smiles": "CCOC(=O)c1c(NC(=O)C2CCCCC2C(=O)O)sc2c1CCC(C(C)(C)CC)C2", "note": "(centres unmarked) [CaCCinh-A10, 2-(3-(ethoxycarbonyl)-6-tert-pentyl-4,5,6,7-tetrahydrobenzo[b]thiophen-2-ylcarbamoyl)cyclohexanecarboxylic acid]", "% inhibition at 25 μM": 75},
      {"smiles": "COC(=O)c1c(NC(=O)CCC(=O)O)sc2c1CCC(C(C)(C)C)C2", "note": "(centres unmarked) [CaCCinh-A11, 4-(6-tert-butyl-3-(methoxycarbonyl)-4,5,6,7-tetrahydrobenzo[b]thiophen-2-ylamino)-4-oxobutanoic acid]", "% inhibition at 25 μM": 81},
      {"smiles": "Cc1ccc(C(=O)Nc2sc3c(c2C(=O)O)CCCCC3)cc1", "note": "[CaCCinh-A12, 2-(4-methylbenzamido)-5,6,7,8-tetrahydro-4H-cyclohepta[b]thiophene-3-carboxylic acid]", "% inhibition at 25 μM": 15},
      {"smiles": "O=C(Nc1sc2c(c1C(=O)O)CCCCC2)c1ccccc1", "note": "[CaCCinh-A13, 2-benzamido-5,6,7,8-tetrahydro-4H-cyclohepta[b]thiophene-3-carboxylic acid]", "% inhibition at 25 μM": 27},
      {"smiles": "COc1cccc(C(=O)Nc2sc3c(c2C(=O)O)CCCCC3)c1", "note": "[CaCCinh-A15, 2-(3-methoxybenzamido)-5,6,7,8-tetrahydro-4H-cyclohepta[b]thiophene-3-carboxylic acid]", "% inhibition at 25 μM": 20},
      {"smiles": "Cc1cccc(NC(=O)c2c(NC(=O)CCC(=O)O)sc3c2CCC(C(C)(C)C)C3)c1", "note": "(centres unmarked) [CaCCinh-A16, 4-(6-tert-butyl-3-(m-tolylcarbamoyl)-4,5,6,7-tetrahydrobenzo[b]thiophen-2-ylamino)-4-oxobutanoic acid]", "% inhibition at 25 μM": 42},
      {"smiles": "Cc1cccc(C(=O)Nc2sc3c(c2C(=O)O)CCCC3)c1", "note": "[CaCCinh-A17, 2-(3-methylbenzamido)-4,5,6,7-tetrahydrobenzo[b]thiophene-3-carboxylic acid]", "% inhibition at 25 μM": "07"},
      {"smiles": "COc1ccc(NC(=O)c2c(NC(=O)CCC(=O)O)sc3c2CCC(C(C)(C)C)C3)cc1", "note": "(centres unmarked) [CaCCinh-A18, 4-(6-tert-butyl-3-(4-methoxyphenylcarbamoyl)-4,5,6,7-tetrahydrobenzo[b]thiophen-2-ylamino)-4-oxobutanoic acid]", "% inhibition at 25 μM": 35}
    ]},
    {"tested_on": "calcium-activated chloride channel (CaCC)", "test": "YFP fluorescence plate reader iodide influx assay in HT-29 cells (ATP/carbachol)", "type": "cell-based, human", "settings": "class B aminothiazoles, semi-quantitative", "procedure": "as §1, §2, §3", "units": {"% inhibition at 25 μM": "%"}, "values": [
      {"smiles": "Cc1ccc(-c2nc(Nc3ccc(C)c(Cl)c3)sc2CC(=O)O)cc1", "note": "[CaCCinh-B02, 2-(2-(3-chloro-4-methylphenylamino)-4-p-tolylthiazol-5-yl)acetic acid]", "% inhibition at 25 μM": 40},
      {"smiles": "Cc1ccc(-c2nc(Nc3cccc(Br)c3)sc2CC(=O)O)cc1", "note": "[CaCCinh-B03, 2-(2-(3-bromophenylamino)-4-p-tolylthiazol-5-yl)acetic acid]", "% inhibition at 25 μM": 60},
      {"smiles": "Cc1ccc(-c2nc(Nc3ccc(Cl)cc3Cl)sc2CC(=O)O)cc1", "note": "[CaCCinh-B04, 2-(2-(2,4-dichlorophenylamino)-4-p-tolylthiazol-5-yl)acetic acid]", "% inhibition at 25 μM": 65},
      {"smiles": "Cc1ccc(-c2nc(Nc3cccc(C(F)(F)F)c3)sc2CC(=O)O)cc1", "note": "[CaCCinh-B05, 2-(4-p-tolyl-2-(3-(trifluoromethyl)phenylamino)thiazol-5-yl)acetic acid]", "% inhibition at 25 μM": 60},
      {"smiles": "CCCc1sc(Nc2ccc(C(=O)O)cc2)nc1-c1ccc(C)cc1C", "note": "[CaCCinh-B06, 4-(4-(2,4-dimethylphenyl)-5-propylthiazol-2-ylamino)benzoic acid]", "% inhibition at 25 μM": 100},
      {"smiles": "Cc1ccc(-c2nc(Nc3ccc(Br)cc3)sc2CC(=O)O)c(C)c1", "note": "[CaCCinh-B07, 2-(2-(4-bromophenylamino)-4-(2,4-dimethylphenyl)thiazol-5-yl)acetic acid]", "% inhibition at 25 μM": 70},
      {"smiles": "Cc1ccc(-c2nc(Nc3cccc(C(F)(F)F)c3)sc2CC(=O)O)c(C)c1", "note": "[CaCCinh-B08, 2-(4-(2,4-dimethylphenyl)-2-(3-(trifluoromethyl)phenylamino)thiazol-5-yl)acetic acid]", "% inhibition at 25 μM": 75},
      {"smiles": "CC(C)Cc1ccc(Nc2nc(-c3ccc(Oc4ccccc4)cc3)cs2)cc1", "note": "[CaCCinh-B09, N-(4-isobutylphenyl)-4-(4-phenoxyphenyl)thiazol-2-amine]", "% inhibition at 25 μM": 65},
      {"smiles": "FC(F)(F)c1cccc(-c2csc(Nc3ccc(C4CCCCC4)cc3)n2)c1", "note": "[CaCCinh-B10, N-(4-cyclohexylphenyl)-4-(3-(trifluoromethyl)phenyl)thiazol-2-amine]", "% inhibition at 25 μM": 55},
      {"smiles": "CCOc1ccc(Nc2nc(-c3ccc(C)cc3)c(CC(=O)O)s2)cc1", "note": "[CaCCinh-B11, 2-(2-(4-ethoxyphenylamino)-4-p-tolylthiazol-5-yl)acetic acid]", "% inhibition at 25 μM": 65},
      {"smiles": "Cc1ccc(-c2nc(NC(=O)c3cccc(C)c3)sc2-c2ccccc2)cc1", "note": "[CaCCinh-B12, 3-methyl-N-(5-phenyl-4-p-tolylthiazol-2-yl)benzamide]", "% inhibition at 25 μM": "03"},
      {"smiles": "CCNc1nc(-c2ccc(C)cc2)cs1", "note": "[CaCCinh-B13, N-ethyl-4-p-tolylthiazol-2-amine]", "% inhibition at 25 μM": 20},
      {"smiles": "COc1ccc(Nc2nc(-c3ccc(OC)cc3)c(CCC(=O)O)s2)cc1", "note": "[CaCCinh-B14, 3-(4-(4-methoxyphenyl)-2-(4-methoxyphenylamino)thiazol-5-yl)propanoic acid]", "% inhibition at 25 μM": 18}
    ]}
  ]
}
